# Laboratory results as given in US20060069132A1, “Azolecarboxamide herbicides” (priority 2004, published 2006).
# Assays:
# barnyardgrass = assay: Test B pre-/postemergence herbicide test; type: in vivo, Echinochloa crus-galli; settings: for Barnyardgrass plant response rating: scale 0 (no effect) to 100 (complete control)
# In short: (§1)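 Response was scored visually 13 to 15 days after treatment against untreated greenhouse controls, 0 meaning no effect and 100 complete control. Formulations (solvent mixture plus surfactant) went onto soil after planting, onto foliage of 1- to 4-leaf plants, and onto 2-leaf plants in a flooded paddy set including rice and barnyardgrass.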
# Surinam grass = assay: Test B pre-/postemergence herbicide test; type: in vivo, Urochloa decumbens
# In short: (§2)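 Greenhouse pot assay with simultaneous preemergence (treated seed) and postemergence (2–18 cm seedlings) applications of surfactant-containing, non-phytotoxic solvent formulations. Response scored visually 13–15 days later on a 0–100 scale, 100 meaning complete control.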
# cocklebur = assay: Test B pre-/postemergence herbicide test; type: in vivo, Xanthium strumarium
# In short: as §1
# corn = assay: Test B pre-/postemergence herbicide test; type: in vivo, Zea mays
# In short: as §2
# large crabgrass = assay: Test B pre-/postemergence herbicide test; type: in vivo, Digitaria sanguinalis
# In short: as §2
# giant foxtail = assay: Test B pre-/postemergence herbicide test; type: in vivo, Setaria faberi
# In short: as §2
# morningglory = assay: Test B pre-/postemergence herbicide test; type: in vivo, Ipomoea coccinea
# In short: as §1
# pigweed = assay: Test B pre-/postemergence herbicide test; type: in vivo, Amaranthus retroflexus
# In short: as §2
# velvetleaf = assay: Test B pre-/postemergence herbicide test; type: in vivo, Abutilon theophrasti
# In short: as §2
# blackgrass = assay: Test B postemergence herbicide test; type: in vivo, Alopecurus myosuroides
# In short: (§3)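 Visual control ratings, 0–100 versus untreated controls, taken after 13 to 15 days in the greenhouse. Blackgrass received a postemergence spray at the 1- to 4-leaf stage (2–18 cm); ducksalad, umbrella sedge and barnyardgrass were flooded-paddy treated at 2 leaves.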
# wheat = assay: Test B postemergence herbicide test; type: in vivo, Triticum aestivum; set-up: key to Wheat plant response rating: 0 = no effect, 100 = complete control
# In short: (§4)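 Visual ratings, 0 (no effect) to 100 (complete control), made versus controls after 13–15 d greenhouse. Paddy plants treated at 2-leaf stage; postemergence plants at 1- to 4-leaf stage, 2–18 cm tall.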
# wild oat = assay: Test B postemergence herbicide test; type: in vivo, Avena fatua
# In short: as §4
# rice = assay: Test B flooded paddy test; type: in vivo, Oryza sativa; settings: 1000 g ai/ha, scale 0 to 100 (0 no effect, 100 complete control)
# In short: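 Greenhouse test; postemergence application to plants at 1–4 leaves (2–18 cm); paddy species at 2 leaves; evaluated visually vs controls at 13–15 days; scale 0–100 (100 = complete control).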
# [1] = tested on: small flower umbrella sedge; assay: Test B flooded paddy test; type: in vivo, Cyperus difformis; settings: 1000 g ai/ha, scale 0 to 100 (0 no effect, 100 complete control)
# In short: as §3
# ducksalad = assay: Test B flooded paddy test; type: in vivo, Heteranthera limosa; settings: 1000 g ai/ha, scale 0 to 100 (0 no effect, 100 complete control)
# In short: as §3
# [2] = 125 g ai/ha, 0 is no effect, 100 is complete control, preemergence
# [3] = Postemergence, 500 g ai/ha, scale 0 (no effect) to 100 (complete control)
# [4] = postemergence, 125 g ai/ha, scale 0 to 100
# [5] = 500 g ai/ha, visual rating 0-100, 0 no effect, 100 complete control, preemergence
# [6] = postemergence, 125 g ai/ha, visual rating
# [7] = postemergence, 500 g ai/ha, visual rating
# [8] = preemergence, 125 g ai/ha, 0 to 100 scale, 0 is no effect, 100 is complete control
# [9] = postemergence, 125 g ai/ha, visual rating, scale 0 (no effect) to 100 (complete control)
# [10] = postemergence, 500 g ai/ha, visual rating, scale 0 (no effect) to 100 (complete control)
# [11] = 125 g ai/ha, 0 = no effect, 100 = complete control, preemergence
compound,measurement,setting,value
CCNC(=S)c1cccc(NC(=O)c2nn(C(C)(C)C)nc2C)c1 [Compound 420],"Plant response rating (0 to 100 scale), Barnyardgrass",barnyardgrass; [2],90
same,Barnyardgrass plant response rating,"barnyardgrass; Postemergence, 125 g ai/ha",20
same,Barnyardgrass plant response rating,"barnyardgrass; Postemergence, 500 g ai/ha",50
same,"Plant response rating (0 to 100 scale), Surinam Grass",Surinam grass; [2],70
same,Surinam Grass plant response rating,Surinam grass; [3],30
same,Surinam Grass plant response rating,Surinam grass; [4],20
same,"Plant response rating (0 to 100 scale), Cocklebur",cocklebur; [2],0
same,Cocklebur plant response rating,cocklebur; [3],40
same,Cocklebur plant response rating,cocklebur; [4],10
same,"Plant response rating (0 to 100 scale), Corn",corn; [2],70
same,Corn plant response rating,corn; [3],20
same,Corn plant response rating,corn; [4],20
same,"Plant response rating (0 to 100 scale), Crabgrass, Large",large crabgrass; [2],100
same,"Crabgrass, Large plant response rating",large crabgrass; [3],40
same,"Crabgrass, Large plant response rating",large crabgrass; [4],30
same,"Plant response rating (0 to 100 scale), Foxtail, Giant",giant foxtail; [2],80
same,"Foxtail, Giant plant response rating",giant foxtail; [3],30
same,"Foxtail, Giant plant response rating",giant foxtail; [4],20
same,"Plant response rating (0 to 100 scale), Morningglory",morningglory; [2],50
same,Morningglory plant response rating,morningglory; [3],90
same,Morningglory plant response rating,morningglory; [4],80
same,"Plant response rating (0 to 100 scale), Pigweed",pigweed; [2],100
same,Pigweed plant response rating,pigweed; [3],70
same,Pigweed plant response rating,pigweed; [4],60
same,"Plant response rating (0 to 100 scale), Velvetleaf",velvetleaf; [2],50
same,Velvetleaf plant response rating,velvetleaf; [3],30
same,Velvetleaf plant response rating,velvetleaf; [4],20
same,Blackgrass plant response rating,blackgrass; [3],40
same,Blackgrass plant response rating,blackgrass; [4],10
same,Wheat plant response rating,"wheat; 500 g ai/ha, scale 0 to 100, 0 no effect, 100 complete control, preemergence",100
same,Wheat plant response rating,wheat; [3],20
same,Wheat plant response rating,wheat; [4],10
same,"Oat, Wild plant response rating",wild oat; [3],30
same,"Oat, Wild plant response rating",wild oat; [4],20
same,Rice plant response rating,rice,60
same,"Sedge, Umbrella plant response rating",[1],70
same,Ducksalad plant response rating,ducksalad,80
CCn1nc(C(C)(C)C)cc1C(=O)Nc1cccc(C(C)=O)c1 [Compound 122],"Plant response rating, Barnyardgrass",barnyardgrass; [5],90
same,Barnyardgrass plant response rating,barnyardgrass; [6],0
same,Barnyardgrass plant response rating,barnyardgrass; [7],20
same,"Plant response rating, Barnyardgrass",barnyardgrass; [8],80
same,"Plant response rating, Surinam Grass",Surinam grass; [5],70
same,Surinam Grass plant response rating,Surinam grass; [9],10
same,Surinam Grass plant response rating,Surinam grass; [10],10
same,"Plant response rating, Surinam Grass",Surinam grass; [8],20
same,"Plant response rating, Cocklebur",cocklebur; [5],70
same,Cocklebur plant response rating,cocklebur; [9],70
same,Cocklebur plant response rating,cocklebur; [10],90
same,"Plant response rating, Cocklebur",cocklebur; [8],20
same,"Plant response rating, Corn",corn; [5],30
same,Corn plant response rating,corn; [9],10
same,Corn plant response rating,corn; [10],10
same,"Plant response rating, Corn",corn; [8],0
same,"Plant response rating, Crabgrass, Large",large crabgrass; [5],100
same,"Crabgrass, Large plant response rating",large crabgrass; [9],10
same,"Crabgrass, Large plant response rating",large crabgrass; [10],10
same,"Plant response rating, Crabgrass, Large",large crabgrass; [8],90
same,"Plant response rating, Foxtail, Giant",giant foxtail; [5],80
same,"Foxtail, Giant plant response rating",giant foxtail; [9],10
same,"Foxtail, Giant plant response rating",giant foxtail; [10],20
same,"Plant response rating, Foxtail, Giant",giant foxtail; [8],50
same,"Plant response rating, Morningglory",morningglory; [5],70
same,Morningglory plant response rating,morningglory; [9],0
same,Morningglory plant response rating,morningglory; [10],0
same,"Plant response rating, Morningglory",morningglory; [8],20
same,"Plant response rating, Pigweed",pigweed; [5],80
same,Pigweed plant response rating,pigweed; [9],0
same,Pigweed plant response rating,pigweed; [10],10
same,"Plant response rating, Pigweed",pigweed; [8],70
same,"Plant response rating, Velvetleaf",velvetleaf; [5],60
same,Velvetleaf plant response rating,velvetleaf; [9],10
same,Velvetleaf plant response rating,velvetleaf; [10],20
same,"Plant response rating, Velvetleaf",velvetleaf; [8],40
same,Blackgrass plant response rating,blackgrass; [9],0
same,Blackgrass plant response rating,blackgrass; [10],10
same,Wheat plant response rating,wheat; [9],0
same,Wheat plant response rating,wheat; [10],10
same,"Oat, Wild plant response rating",wild oat; [9],10
same,"Oat, Wild plant response rating",wild oat; [10],40
same,Rice plant response rating,"rice; visual rating, 13 to 15 days",70
same,"Sedge, Umbrella plant response rating","[1]; visual rating, 13 to 15 days",80
same,Ducksalad plant response rating,"ducksalad; visual rating, 13 to 15 days",80
CC(=O)c1cccc(NC(=O)c2cc(C(C)(C)C)nn2CCF)c1 [Compound 128],"Plant response rating, Barnyardgrass",barnyardgrass; [5],90
same,Barnyardgrass plant response rating,barnyardgrass; [6],20
same,Barnyardgrass plant response rating,barnyardgrass; [7],30
same,"Plant response rating, Barnyardgrass",barnyardgrass; [8],80
same,"Plant response rating, Surinam Grass",Surinam grass; [5],60
same,Surinam Grass plant response rating,Surinam grass; [9],10
same,Surinam Grass plant response rating,Surinam grass; [10],20
same,"Plant response rating, Surinam Grass",Surinam grass; [8],40
same,"Plant response rating, Cocklebur",cocklebur; [5],20
same,Cocklebur plant response rating,cocklebur; [9],90
same,Cocklebur plant response rating,cocklebur; [10],100
same,"Plant response rating, Cocklebur",cocklebur; [8],20
same,"Plant response rating, Corn",corn; [5],20
same,"Plant response rating, Corn",corn; [8],0
same,"Plant response rating, Crabgrass, Large",large crabgrass; [5],100
same,"Crabgrass, Large plant response rating",large crabgrass; [9],20
same,"Crabgrass, Large plant response rating",large crabgrass; [10],20
same,"Plant response rating, Crabgrass, Large",large crabgrass; [8],90
same,"Plant response rating, Foxtail, Giant",giant foxtail; [5],60
same,"Foxtail, Giant plant response rating",giant foxtail; [9],20
same,"Foxtail, Giant plant response rating",giant foxtail; [10],20
same,"Plant response rating, Foxtail, Giant",giant foxtail; [8],40
same,"Plant response rating, Morningglory",morningglory; [5],30
same,"Plant response rating, Morningglory",morningglory; [8],20
same,"Plant response rating, Pigweed",pigweed; [5],80
same,Pigweed plant response rating,pigweed; [9],20
same,Pigweed plant response rating,pigweed; [10],60
same,"Plant response rating, Pigweed",pigweed; [8],50
same,"Plant response rating, Velvetleaf",velvetleaf; [5],80
same,Velvetleaf plant response rating,velvetleaf; [9],50
same,Velvetleaf plant response rating,velvetleaf; [10],60
same,"Plant response rating, Velvetleaf",velvetleaf; [8],70
same,Blackgrass plant response rating,blackgrass; [9],10
same,Blackgrass plant response rating,blackgrass; [10],10
same,Wheat plant response rating,wheat; [9],0
same,Wheat plant response rating,wheat; [10],20
same,"Oat, Wild plant response rating",wild oat; [9],10
same,"Oat, Wild plant response rating",wild oat; [10],10
same,Rice plant response rating,"rice; visual rating, 13 to 15 days",60
same,"Sedge, Umbrella plant response rating","[1]; visual rating, 13 to 15 days",90
same,Ducksalad plant response rating,"ducksalad; visual rating, 13 to 15 days",90
CCc1nc(C(C)(C)C)sc1C(=O)Nc1cccc(C(=O)NCCF)c1 [Compound 209],Barnyardgrass plant response rating (0 to 100 scale),barnyardgrass; [11],50
same,"Plant response rating, Barnyardgrass",barnyardgrass; [5],90
same,Barnyardgrass plant response rating,barnyardgrass; [6],10
same,Barnyardgrass plant response rating,barnyardgrass; [7],20
same,Surinam Grass plant response rating (0 to 100 scale),Surinam grass; [11],20
same,"Plant response rating, Surinam Grass",Surinam grass; [5],50
same,Surinam Grass plant response rating,Surinam grass; [9],20
same,Surinam Grass plant response rating,Surinam grass; [10],20
same,Cocklebur plant response rating (0 to 100 scale),cocklebur; [11],10
same,"Plant response rating, Cocklebur",cocklebur; [5],30
same,Cocklebur plant response rating,cocklebur; [9],30
same,Cocklebur plant response rating,cocklebur; [10],40
same,Corn plant response rating (0 to 100 scale),corn; [11],0
same,"Plant response rating, Corn",corn; [5],50
same,Corn plant response rating,corn; [9],20
same,Corn plant response rating,corn; [10],30
same,"Crabgrass, Large plant response rating (0 to 100 scale)",large crabgrass; [11],40
same,"Plant response rating, Crabgrass, Large",large crabgrass; [5],60
same,"Crabgrass, Large plant response rating",large crabgrass; [9],20
same,"Crabgrass, Large plant response rating",large crabgrass; [10],20
same,"Foxtail, Giant plant response rating (0 to 100 scale)",giant foxtail; [11],30
same,"Plant response rating, Foxtail, Giant",giant foxtail; [5],60
same,"Foxtail, Giant plant response rating",giant foxtail; [9],20
same,"Foxtail, Giant plant response rating",giant foxtail; [10],30
same,Morningglory plant response rating (0 to 100 scale),morningglory; [11],10
same,"Plant response rating, Morningglory",morningglory; [5],20
same,Morningglory plant response rating,morningglory; [9],20
same,Morningglory plant response rating,morningglory; [10],20
same,Pigweed plant response rating (0 to 100 scale),pigweed; [11],70
same,"Plant response rating, Pigweed",pigweed; [5],100
same,Pigweed plant response rating,pigweed; [9],30
same,Pigweed plant response rating,pigweed; [10],40
same,Velvetleaf plant response rating (0 to 100 scale),velvetleaf; [11],10
same,"Plant response rating, Velvetleaf",velvetleaf; [5],50
same,Velvetleaf plant response rating,velvetleaf; [9],20
same,Velvetleaf plant response rating,velvetleaf; [10],20
same,Blackgrass plant response rating,blackgrass; [9],0
same,Blackgrass plant response rating,blackgrass; [10],20
same,Wheat plant response rating,wheat; [9],10
same,Wheat plant response rating,wheat; [10],20
same,"Oat, Wild plant response rating",wild oat; [9],20
same,"Oat, Wild plant response rating",wild oat; [10],20
same,Rice plant response rating,"rice; visual rating, 13 to 15 days",50
same,"Sedge, Umbrella plant response rating","[1]; visual rating, 13 to 15 days",90
same,Ducksalad plant response rating,"ducksalad; visual rating, 13 to 15 days",80
